The source of these data is patent US9907842B2, “Cytotoxic T lymphocyte inducing immunogens for prevention treatment and diagnosis of cancer” (Immunotope, Inc., priority 2009, dated 2018).

What all share (format): cell-based, human
For assay [1], the system named is T2 cells loaded with the corresponding synthetic peptide and HLA-A2+ lung cancer cells lines [CRL-5865, CRL-5944 and NCI-H522]. As to the kind of experiment: Interferon-γ ELISpot with peptide-specific CTL from healthy HLA-A2+ donors. Particulars: CTL from PBMC of two healthy HLA-A2+ donors; FIG. 1. As for the experimental part:
(§1) PBMC were purified from HLA-A2^+ normal donor blood using lymphocyte separation media (Cappel ICN Biomedical, Aurora, Ohio). PBMC (5.3×10^6) were added to individual wells of a 24-well cluster plate (Costar, Corning, N.Y.) in 1.0 ml of serum-free AIM-V medium (Life Technologies) and allowed to adhere for 60 min at 37° C. Non-adherent cells were removed and saved as a source of effector T cells. Adherent PBMC (˜8.3×10^5/well) were then pulsed with […] synthetic peptides in serum-free AIM-V medium containing […] β2-microglobulin (Calbiochem-Novabiochem, San Diego, Calif.) and incubated for 2 h at 37° C. Unbound peptides were aspirated and the wells washed with media.
(§2) Monocyte-derived DC were generated as follows. PBMC (5.3×10^7) were allowed to adhere in T-75 flasks (Corning) in 10 ml of serum-free AIM-V medium for 60 min at 37° C. Non-adherent cells were collected as a source of effector T cells and pooled with the previous collection above. Adherent monocytes in flasks were then exposed to recombinant human granulocyte macrophage colony stimulating factor (GM-CSF, 25 ng/ml; Peprotech) and recombinant human IL-4 (100 ng/ml; Peprotech) in 10 ml of AIM-V medium containing 10% heat-inactivated FBS. DC obtained by this method [immature DC (iDC)] are characterized by expression of low levels of CD83, CD80, CD86, and HLA class I and class II molecules (data not shown).
(§3) Mature DC (mDC) were obtained by exposing day 5 DC cultures to recombinant soluble CD40 ligand (sCD40L; Peprotech) at […] for 24 h in the presence of 25 ng/ml GM-CSF and are characterized by expression of high levels of CD80, CD86, and HLA class I and class II molecules.mDC were harvested, washed, pulsed with 5 mg/ml peptide in serum-free AIM-V medium and irradiated (5000 rad) prior to use as stimulators.
(§4) The protocol used here is a modification of the method described by Plebanski et al. (Eur. J. Immunol. 25:1783, (1995)). CTL to peptide were generated by 3±4 cycles of stimulation with peptide-loaded APC. For the first round of stimulation (day 0), T cells or non-adherent PBMC from above (2.3×10^6/ml or 4.3×10^6 per well) were added in bulk (CD4^+, CD8^+, NK, etc.) to adherent PBMC-loaded peptides in serum-free medium ([…]), β2-microglobulin ([…]) (Calbiochem-Novabiochem), recombinant human IL-7 (5 ng/ml) (Peprotech) and keyhole limpet hemocyanin (5 mg/ml) (Sigma, St Louis, Mo.). Cultures were re-stimulated with iDC every 7 days, pulsed with varying amounts of peptide (second round 25 mg/ml, third round 10 mg/ml) and irradiated (5000 rad) on day 8. At each re-stimulation, the T cells were transferred to new plates by first aspirating 70% of spent media in wells and then transferring the pooled contents to a new plate. Fresh IL-7 was added at each re-stimulation. The responder:stimulator (T cell:DC) ratio was set at 20 for each stimulation. Recombinant human IL-2 (10 U/ml) was added on day 5 after each re-stimulation.
(§5) Prior to CTL assays, the T cells were harvested and CD8^+ T cells were purified by positive selection using CD8^+ microbeads immunomagnetic cell separation with MACS kit (Miltenyi Biotec, Auburn, Calif.). If a fourth round of stimulation was necessary following CTL analysis, the CTL were pulsed as before, except with 5±10 mg/ml of peptide.
(§6) The peptide specific CTLs were assessed for recognition and/or lysis of peptide-loaded T2 cells as well as various lung normal and tumor target cells. After two to four rounds of restimulation, cultures were tested for cytotoxic activity against the peptide loaded and normal and tumor targets. Peptide-pulsed T2 cells (1 μg/ml peptide for 2 hr at 37° C.), irrelevant HLA-A2 peptides pulsed T2 cells were used as controls. […]

For assay [2] the test system is unchanged. As to the kind of experiment: Granzyme B ELISpot with peptide-specific CTL from healthy HLA-A2+ donors. Particulars: CTL from PBMC of two healthy HLA-A2+ donors; FIG. 2. As for the experimental part: as §1, §2, §3, §4, §5, §6
Assay [3] shares this test system. The assay can be described thus: Interferon-γ ELISpot with peptide-specific CTL from a HLA-A2+ lung cancer patient. Particulars: CTL from PBMC of a HLA-A2+ donor with lung cancer; FIG. 3A. As for the experimental part: as §4, with “Recombinant human IL-2 (10 U/ml) was added on day 5 after each re-stimulation.” left out
(§7) The peptide specific CTLs were assessed for recognition and/or lysis of peptide-loaded T2 cells as well as various lung normal and tumor target cells. […] Recognition of specific antigens by peptide-specific CTL was measured by production of IFN-gamma and granzyme in the ELISPOT assay (Ramakrishna, V., M. M. Ross, M. Petersson, C. C. Gatlin, C. E. Lyons, C. L. Miller, H. E. Myers, M. McDaniel, L. R. Karns, R. Kiessling, G. Parmiani, and D.C. Flyer. (2003) Int Immunol 15:751-763; Morse, M. A., S. K. Nair, P. J. Mosca, A. C. Hobeika, T. M. Clay, Y. Deng, D. Boczkowski, A. Proia, D. Neidzwiecki, P. A. Clavien, H. I. Hurwitz, J. Schlom, E. Gilboa, and H. K. Lyerly. (2003) Cancer Invest 21:341-349). […]
PBMC from a HLA-A2^+ donor with lung cancer were in vitro stimulated with synthetic peptides corresponding to each of the three selected lung cancer epitopes (SEQ ID 82, SEQ ID 34 and SEQ ID 67). […] Interferon-γ producing cells were quantitated using an Immunospot reader. […]

Assay [4] has the same test system. As to the kind of experiment: Granzyme B ELISpot with peptide-specific CTL from a HLA-A2+ lung cancer patient. Particulars: CTL from PBMC of a HLA-A2+ lung cancer patient; FIG. 3B. The procedure: The protocol used here is a modification of the method described by Plebanski et al. (Eur. J. Immunol. 25:1783, (1995)). CTL to peptide were generated by 3±4 cycles of stimulation with peptide-loaded APC. For the first round of stimulation (day 0), T cells or non-adherent PBMC from above (2.3×10^6/ml or 4.3×10^6 per well) were added in bulk (CD4^+, CD8^+, NK, etc.) to adherent PBMC-loaded peptides in serum-free medium ([…]), β2-microglobulin ([…]) (Calbiochem-Novabiochem), recombinant human IL-7 (5 ng/ml) (Peprotech) and keyhole limpet hemocyanin (5 mg/ml) (Sigma, St Louis, Mo.). Cultures were re-stimulated with iDC every 7 days, pulsed with varying amounts of peptide (second round 25 mg/ml, third round 10 mg/ml) and irradiated (5000 rad) on day 8. At each re-stimulation, the T cells were transferred to new plates by first aspirating 70% of spent media in wells and then transferring the pooled contents to a new plate. Fresh IL-7 was added at each re-stimulation. The responder:stimulator (T cell:DC) ratio was set at 20 for each stimulation. Recombinant human IL-2 (10 U/ml) was added on day 5 after each re-stimulation. […]
as §7
PBMC from a HLA-A2^+ lung cancer patient were in vitro stimulated with synthetic peptides corresponding to each of the three selected lung cancer epitopes (SEQ ID 82, SEQ ID 34 and SEQ ID 67). […] Granzyme B producing cells were quantitated using an Immunospot reader. […]

In the case of “DQFQKVLSL (listed as Homo sapiens) [SEQ ID 08]”, in assay [1], the “recognition of targets by peptide-specific CTL (Interferon-γ producing cells)” value (shortened to “recognition of targets”) is listed as “recognize peptide loaded targets as well as lung cancer cells”. In addition, the “cytolytic activity of peptide-specific CTL (Granzyme B producing cells)” value (from here on “cytolytic activity”) in assay [2] is given as “are cytolytic”.
As to “GMYGKIAVMEL (listed as Homo sapiens) [SEQ ID 19]”, the “recognition of targets” value in assay [1] is given as “recognize peptide loaded targets as well as lung cancer cells”. The “cytolytic activity” value in assay [2] is reported as “are cytolytic”.
Taken in the same sequence, the figures for “KIYQWINEL (listed as Homo sapiens) [SEQ ID 29]” were “recognize peptide loaded targets as well as lung cancer cells” and “are cytolytic”.
Taken in the same sequence, the figures for “KLGEFAKVLEL (listed as Homo sapiens) [SEQ ID 33]” were “recognize peptide loaded targets as well as lung cancer cells” and “are cytolytic”.
Consider “KLIPFLEKL (listed as Homo sapiens) [SEQ ID 34]”, for which the “recognition of targets” value in assay [1] and in assay [3] was “recognize peptide loaded targets as well as lung cancer cells” in each case. Also, the “cytolytic activity” value in assay [2] and in assay [4] was “are cytolytic” throughout.
As to “KLSLVAAML (listed as Homo sapiens) [SEQ ID 36]”, in assay [1], the “recognition of targets” value is “recognize peptide loaded targets as well as lung cancer cells”. For the same sequence, in assay [2], the “cytolytic activity” value is “are cytolytic”.
For the sequence “RLLEVPVML (listed as Homo sapiens) [SEQ ID 67]”, the “recognition of targets” value in assay [1] and in assay [3] was “recognize peptide loaded targets as well as lung cancer cells” in each case. The “cytolytic activity” value in assay [2] and in assay [4] was “are cytolytic” each time.
“VLVPVLVMV (listed as Homo sapiens) [SEQ ID 82]”: the “recognition of targets” value in assay [1] and in assay [3] was “recognize peptide loaded targets as well as lung cancer cells” in each case. The “cytolytic activity” value in assay [2] and in assay [4] was “are cytolytic” throughout.
